Test results reported in US20230013402A1, “REGENERATING FUNCTIONS AND PHENOTYPES OF CONNECTIVE TISSUE THROUGH NPAS2 SUPPRESSION” (The Regents of the University of California, priority 2019, published 2023).
“Also recorded” adds a separate entry of the source.

Tests used:
[1] = tested on: bone marrow stromal cells (BMSC); test: In vitro mineralization / osteogenic differentiation of BMSC (MSC) in osteogenic medium; format: cell-based, mouse
Excerpt: FIGS. 7A-7B show the effect of Reserpine on bone marrow stromal cells osteogenic differentiation. […] Bars: Tukey analysis with p<0.05. […] The expression values were normalized with day 0 RNA.
FIGS. 11A-11D(b) show results of in vitro biological assays of Npas2 suppressing compound Dwn1 (Reserpine).
Reserpine was selected and its effect on bone marrow stromal cells (BMSC) was characterized for osteogenic differentiation.
To evaluate the mechanism of action involving Npas2, Reserpine was applied to WT, Npas2+/− and Npas2−/− mouse BMSC and evaluated for in vitro osteogenic differentiation.
The small molecule compound that scored the best combined z score in Example 2, Dwn1 (Reserpine) was selected for in vitro biological assays. […] BMP-2 has been used as a gold standard for accelerated osteogenic differentiation of MSC (48, 49). […] The expression of core clock gene Bmal1 was not affected by Dwn1 (FIG. 11C). Dwn1 increased in vitro mineralization of Npas2+/− MSC, but not of Npas2−/− MSC (FIG. 11D), implying that the effect of Dwn1 (Reserpine) was facilitated primarily by Npas2 suppression.

[2] = tested on: murine dermal fibroblasts; test: Collagen synthesis by picrosirius red staining; format: cell-based, mouse; details: day 7; 1 μM or 10 μM; vs control and 50 μg AA
Protocol: The effects of two different concentrations of Dwn1 (1 μM or 10 μM) on collagen synthesis in murine dermal fibroblast in vitro were examined Murine dermal fibroblasts were seeded into 24-well plates and cultured at 80%-90% confluency in medium supplemented with ascorbic acid (50 μg/mL) for 1, 3, and 7 days. The cells were then fixed with 10% neutral buffered formalin and stained with Picrosirius red (PolyScience, Niles, Ill.) for visualizing the collagen. AA: 1-ascorbic acid. OD: optical density. CTRL: cell treated with control medium without AA. […] (FIG. 35A) The absorption value was read in a spectrophotometer at 550 nm with a plate reader ([…] H1 plate reader) and compared by one-way ANOVA with the post hoc Holm test.

human skin fibroblasts = test: High-throughput cell migration assay (Oris Pro Cell Migration Assay plate) / standardized viability; format: cell-based; details: Table 1; HTS of FDA Drug Library
Excerpt: Mouse MSC carrying Npas2-LacZ reporter gene, as described by Hassan N, et al., PLoS One. 2017; 12(8):e0183359, which is incorporated by reference herein in its entirety, was immortalized using SV40 in order to accommodate a large-scale HTS. […] This cell system was used to screen FDA Approved Drug Library (1120 compounds). The same library was also screened for cell viability by Calcein AM Hoechst 33342 staining Cell migration assays using the Oris™ Pro Cell Migration Assay plate, as described by Joy M E et al., PloS one. 2014; 9(2):e88350, which is incorporated by reference herein in its entirety, was used for a high-throughput migration assay using human skin fibroblasts
The combined Z score was used to identify hit compounds (Table 1).

Npas2-LacZ expression = test: Titration assay: effective concentration by LacZ expression in MSC Npas2-LacZ; format: cell-based, mouse; details: serial dilution 100 μM to 0.2 nM
Protocol: Dwn1 was serially diluted from 100 μM to 0.2 nM and applied to MSC Npas2-LacZ. Effective concentration (EC) was determined by LacZ expression and inhibitory concentration (IC) was determined by cell viability using Calcein AM/Hoechst 33342 staining DwnC and Dwn1 are both Reserpine.
Dwn1 was identical to the previously identified DwnC compound from the LOPAC library. Dwn1 compound (Reserpine) was selected for serial dilution analysis. […] Dwn1 was used for preliminary in vitro and in vivo studies described below. Additional compounds suppressing Npas2 were identified (Table 2).
Dwn1 was serially diluted from 100 μM to 0.2 nM and applied to MSC Npas2-LacZ. EC was determined by LacZ expression and IC was determined by cell viability using Calcein AM/Hoechst 33342 staining.

**Q.** Which results are given for `COC(=O)[C@H]1[C@H]2C[C@@H]3c4[nH]c5cc(OC)ccc5c4CCN3C[C@H]2C[C@@H](OC(=O)c2cc(OC)c(OC)c(OC)c2)[C@@H]1OC` [Reserpine]?
**A.** In vitro mineralization compared with BMP-2 supplementation ([1]; Dwn1 1 μM vs BMP-2 100 ng/ml): equivalent to BMP-2 (100 ng/ml) supplementation; In vitro mineralization / osteogenic differentiation ([1]; Npas2+/− BMSC/MSC): reproducibly observed; In vitro mineralization / osteogenic differentiation ([1]; Npas2+/− BMSC/MSC, listed as Dwn1): responded; also recorded: increased; In vitro mineralization / osteogenic differentiation ([1]; Npas2−/− BMSC/MSC): did not modulate; In vitro mineralization / osteogenic differentiation ([1]; wild type BMSC/MSC, osteogenic medium, alizarin red): increased alizarin red positive in vitro mineralization; also recorded: dose-dependently accelerated in vitro mineralization; also recorded: reproducibly observed; In vitro mineralization / osteogenic differentiation ([1]; wild type BMSC/MSC, osteogenic medium, alizarin red, listed as Dwn1): increased dose-dependently; also recorded: dose dependently increased; also recorded: dose-dependently increased; Picrosirius red staining (collagen fiber formation and accumulation) [2]: increase of a positive reaction; Migration (standardized viability) Z Score (human skin fibroblasts): 4.19; Effective concentration (EC) (Npas2-LacZ expression): 0.5 to 10 µM
